Measurements reported in ChEMBL document CHEMBL1155003, “Halicyclamine A, a marine spongean alkaloid as a lead for anti-tuberculosis agent” (2008).
Converted amounts (≈) assume the structure as drawn. The source made the active and inactive calls. The calls are words filed in the database; no cut-off is given here.

Key:
[1] = tested on: Mycolicibacterium smegmatis; assay: Antitubercular activity against Mycobacterium smegmatis MC2 155 under aerobic condition after 24 hrs by MTT method; assay type: functional; settings: str. MC2 155, 24 h
[2] = tested on: Mycolicibacterium smegmatis; assay: Antitubercular activity against Mycobacterium smegmatis MC2 155 under hypoxic condition after 96 hrs by MTT method; assay type: functional; settings: str. MC2 155, 96 h
[3] = tested on: Mycobacterium tuberculosis; assay: Antitubercular activity against Mycobacterium tuberculosis H37Ra under aerobic condition after 7 days by MTT method; assay type: functional; settings: 168 h
[4] = tested on: Mycobacterium tuberculosis; assay: Antitubercular activity against Mycobacterium tuberculosis H37Ra under hypoxic condition after 14 days by MTT method; assay type: functional; settings: 336 h
[5] = tested on: Mycobacterium tuberculosis; assay: Antitubercular activity against Mycobacterium tuberculosis H37Rv ATCC 25618 after 14 days; assay type: functional; settings: 336 h
[6] = tested on: Mycobacterium tuberculosis; assay: Antitubercular activity against Mycobacterium tuberculosis Kurono ATCC 35812 after 14 days; assay type: functional; settings: 336 h
Mycobacterium avium = assay: Antitubercular activity against Mycobacterium avium ATCC 35712 after 14 days; assay type: functional; settings: ATCC 35712, 336 h
[7] = tested on: Mycobacterium intracellulare; assay: Antitubercular activity against Mycobacterium intracellular ATCC 35761 after 14 days; assay type: functional; settings: ATCC 35761, 336 h
Mycobacterium kansasii = assay: Antitubercular activity against Mycobacterium kansasii ATCC 35775 after 14 days; assay type: functional; settings: ATCC 35775, 336 h
[8] = tested on: Mycolicibacterium fortuitum; assay: Antitubercular activity against Mycobacterium fortuitum ATCC 9820 after 14 days; assay type: functional; settings: ATCC 9820, 336 h
Mycolicibacterium aurum = assay: Antitubercular activity against Mycobacterium aurum ATCC 23366 after 14 days; assay type: functional; settings: ATCC 23366, 336 h
[9] = tested on: Mycolicibacterium smegmatis; assay: Bactericidal activity against Mycobacterium smegmatis MC2 155 assessed as decrease in CFU at 10 ug/ml after 4 days; assay type: functional, organism-based; settings: str. MC2 155
[10] = tested on: Mycobacterium tuberculosis; assay: Bactericidal activity against Mycobacterium tuberculosis H37Rv assessed as decrease in CFU at 20 ug/ml after 11 to 28 days; assay type: functional
[11] = tested on: Mycolicibacterium smegmatis; assay: Antitubercular activity against Mycobacterium smegmatis MC2 155 ICHO1001 with pMV261 transformant; assay type: functional; settings: str. MC2 155
[12] = tested on: Mycolicibacterium smegmatis; assay: Antitubercular activity against guaB1 gene over-expressed Mycobacterium smegmatis MC2 155 ICHO1002; assay type: functional; settings: str. MC2 155
[13] = tested on: Mycolicibacterium smegmatis; assay: Antitubercular activity against guaB2 gene over-expressed Mycobacterium smegmatis MC2 155 ICHO1003; assay type: functional; settings: str. MC2 155
[14] = tested on: Mycolicibacterium smegmatis; assay: Antitubercular activity against guaB3 gene over-expressed Mycobacterium smegmatis MC2 155 ICHO1004; assay type: functional; settings: str. MC2 155

Row | SMILES | MIC [1] [µg/mL] | MIC [2] [µg/mL] | MIC [3] [µg/mL] | MIC [4] [µg/mL] | MIC [5] [µg/mL] | MIC [6] [µg/mL] | MIC (Mycobacterium avium) [µg/mL] | MIC [7] [µg/mL] | MIC (Mycobacterium kansasii) [µg/mL] | MIC [8] [µg/mL] | MIC (Mycolicibacterium aurum) [µg/mL] | Activity [9] | CFU/ml [10] | MIC [11] [µg/mL] | MIC [12] [µg/mL] | MIC [13] [µg/mL] | MIC [14] [µg/mL]
1 | C1=C2CCCC/C=C\C=C\CCN3CC[C@@H]4[C@H](CCCCCC/C=C\C=C/CCN(C2)C[C@H]14)C3 [HALICYCLAMINE A] | 2.5 (≈ 5.4 µM) | 2.5 (≈ 5.4 µM) | 5 (≈ 10.8 µM) | 5 (≈ 10.8 µM) | 6.25 (≈ 13.5 µM) | 3.13 (≈ 6.76 µM) | 6.25 (≈ 13.5 µM) | 6.25 (≈ 13.5 µM) | 3.13 (≈ 6.76 µM) | 25 (≈ 54 µM) | 6.25 (≈ 13.5 µM) | Active | <10 | 2.5 (≈ 5.4 µM) | 2.5 (≈ 5.4 µM) | 2.5 (≈ 5.4 µM) | 2.5 (≈ 5.4 µM)
2 | NNC(=O)c1ccncc1 [ISONIAZID] | 2.5 (≈ 18.2 µM) | 25 (≈ 182 µM) | 0.05 (≈ 0.365 µM) | > 100 | – | – | – | – | – | – | – | – | – | – | – | – | –
